Experimental data from patent publication US6833146B2, “Powered beverage mix with rapidly dissolving calcium” (Unilab Pharmatech, Ltd., priority 2002, dated 2004).
Each block holds one molecule with its values, some of them ahead of it.

Experiments:
[1] = Simulated Hand Stirring Test (calcium sedimentation after stirring a unit dose in water); type: physicochemical; details: for calcium base reacts fast enough with the acid for minimal calcium sedimentation: with appropriate amount of sugar, stirred for less than about 60 seconds by hand; for Sweetener/calcium ratio to pass 60-second Simulated Hand Stirring Test: calcium hydroxide providing 300 mg calcium per unit dose, citric acid 0.96 gram per unit dose, 200 ml water at 25° C., 200 rpm; for Acid required/Dose: citric acid to pass 60-second test
Method: A magnetic stir bar (9.5×50.8 mm, catalogue no. 58948-980, VWR Spinbar®, USA) is placed in a 250-ml Pyrex® beaker (catalogue no. 1000-250, Corning, USA) to which 200 ml of water at 25° C. is added. The beaker is placed on top of a digital magnetic stirrer (Cole Parmer, USA) and the speed set at 200 rpm. A unit dose of a powdered mix is then added to the water and stirred for a given period of time, after which the beaker is removed and calcium sedimentation evaluated on a 1-10 scale, with 1 denoting no visible calcium sedimentation. A rating of 2 denoting very minimal calcium sedimentation, which is visually acceptable, is set as the minimum dissolution criterion.
Hereafter, this test will be referred to as the “Simulated Hand Stirring Test”. When the stirring time is 60 seconds, the test is referred to as the “60-second Simulated Hand Stirring Test”.

Solubility in water = type: physicochemical
[2] = cited from earlier work

Structure (SMILES): [Ca+2].[OH-].[OH-] [Calcium hydroxide]
calcium base reacts fast enough with the acid for minimal calcium sedimentation [1]: will react fast enough

Structure (SMILES): [O]=[Ca] [Calcium oxide, reference compound]
calcium base reacts fast enough with the acid for minimal calcium sedimentation [1]: may not react fast enough

Structure (SMILES): O=C(CO)[C@@H](O)[C@H](O)[C@H](O)CO [Fructose]
Sweetener/calcium ratio to pass 60-second Simulated Hand Stirring Test [1]: 45 | Acid required/Dose ([1]; fructose On Mesh 20 (> 841 micron), 22 g fructose/dose, 500 mg calcium/dose): 2.0 | Acid required/Dose ([1]; fructose On Mesh 20, 6 g fructose/dose, 150 mg calcium/dose): 0.5 | Acid required/Dose ([1]; fructose On Mesh 20, 16 g fructose/dose, 300 mg calcium/dose): 1.0 | Acid required/Dose ([1]; fructose Through mesh 40 (< 420 micron), 22 g fructose/dose, 500 mg calcium/dose): 2.0 | Acid required/Dose ([1]; fructose Through mesh 40, 6 g fructose/dose, 150 mg calcium/dose): 0.5 | Acid required/Dose ([1]; fructose Through mesh 40, 16 g fructose/dose, 300 mg calcium/dose): 1.0

Now from value to molecule, other results behind:

times more soluble than calcium hydroxide (Solubility in water): about four | calcium sedimentation with fumaric acid as the acid ([1]; 555 mg calcium hydroxide (300 mg calcium), 26 grams sucrose, fumaric acid at three times the stoichiometric amount): significant calcium sedimentation
Structure (SMILES): O=C(O)/C=C/C(=O)O [Fumaric acid, reference compound]
solubility in water [2]: 0.63 gram per 100 ml of water

Sweetener/calcium ratio to pass 60-second Simulated Hand Stirring Test [1]: 95
Structure (SMILES): OC[C@@H](O)[C@@H](O)[C@H](O)[C@@H](O)CO [Sorbitol, reference compound]

Sweetener/calcium ratio to pass 60-second Simulated Hand Stirring Test [1]: 60
Structure (SMILES): OC[C@H]1O[C@@](CO)(O[C@H]2O[C@H](CO)[C@@H](O)[C@H](O)[C@H]2O)[C@@H](O)[C@@H]1O [Sucrose]

times more soluble than calcium hydroxide (Solubility in water): about 300 times
Structure (SMILES): O=C(O)CC(O)C(=O)O (stereo not drawn) [malic acid]
